One series deals with BALB/c mice. In words: Contact hypersensitivity test: ear swelling after primary and secondary sensitization with picryl chloride, photochemotherapy with 664 nm laser light. Format: in vivo. As to conditions: for Rate of Ear swelling, (%) (Average value ± Standard deviation): laser 664 nm, 10 J/cm^2, 30 min after dosing, untreated group = 100%, 24 h after secondary sensitization. From the text:
After the intravenous injection, hair of the abdominal side of the mice was shaved off. Thirty minutes after the administration of the test compound, a laser light at a wave length of 664 nm was irradiated onto the exposed skin of the abdominal side of the mice to give a total fluence of 10 J/cm^2 under the conditions of the laser output of 20 mW/cm^2 and the radiated spots of a diameter of 18 mm.
Five days after the primary sensitization, an aqueous solution containing 1% picryl chloride was applied to one ear of each mouse under test, to effect the secondary sensitization. Thus, there were prepared the treated groups of the test mice having a contact hypersensitibity.
(iii) Twenty-four hours after the secondary sensitization, namely six days after the primary sensitization, measurements were made of the thickness of both the ears of each mouse under test by a thickness gauge, and the increases in the thickness of ears were calculated from the difference which was found between the thickness of the one ear having not received the application of picryl chloride and the thickness of the another ear having received the application of picryl chloride for the secondary sensitization. Then, the rates (%) of ear swelling of each mouse of the treated group of mice were evaluated, on such assumption that the average value of the increase in the thickness of the secondarily sensitized ears of the mice of the untreated group was regarded as amounting to 100%, in respect of the mice of the untreated group of mice where the mice were neither administered with the test compound, nor were irradiated with the laser light, but where the mice received only the primary and secondary sensitizations with picryl chloride.

Another series deals with CD-1 mice (male). The series can be described thus: Acute toxicity. In kind it is in vivo.
In series [1] the test system is mice of BALB/c (H-2K^d) strain. The series can be described thus: Rejection reactions upon transplantation of skin in mice, photochemotherapy with 664 nm laser light. In kind it is in vivo. As to conditions: for Percentage (%) of number of the mice with the surviving and remaining skin graft transplanted: 1 mg/kg i.v., laser 664 nm 10 J/cm^2. Here is the method: The following experiment was conducted in order to evaluate the therapeutic effect of the photochemotherapeutical method of this invention for treating the rejection reactions raised upon the transplantation of skin in mice.
Thus, as the mice (the recipient) which were to recieve a transplantation of skin, were used mice of BALB/c (H-2K^d) strain (ten mice per group). […] Thirty minutes after the intravenous injection of the test compound, a laser light at the wave length of 664 nm was irradiated onto the abdominal side of each recipient mouse at the laser output of 20 mW/cm^2, at the irradiated spots of a diameter of 18 mm and at a total laser fluence of 10 J/cm^2.
On the other hand, mice of CH/HeN(H-2K^b) strain were used as the mice (the donor) which were to afford the graft of skin for the transplantation to the recipient. The graft of skin to be used for the skin transplantation was one piece of the tail skin of the donor mice which was cut into a piece of about 5 mm×5 mm. This graft of skin was transplanted on the back side of the recipient mouse in such a manner that hair of the back side of the mouse was firstly shaved off, then one region of the skin of the hair-shaved back side of mouse was stripped off and the skin graft was transplanted onto the skin-stripped region of the back side of the recipient mouse. This skin transplantation was performed twenty-four hours after the irradiation of laser light on the recipient mouse.
Then, observation was made as to whether the skin graft so transplanted would fall off or not fall from the recipient mouse within the period of from the time of the skin transplantation to the 15 the days after the intravenous injection of the test compound.
The number of the recipient mice which normally have the transplanted and surviving skin graft remaining on the back side of mouse was counted at each of the given days of observation. The ratio of the number of the graft-remaining mouse at the each day to the number of the mouse at 0 day was expressed as percentage (%), with that the number of the recipient mice at the 0 day being assumed as 100.
Mice of the untreated group were those mice which received the skin transplantation only but neither received the administration of the test compound nor received the irradiation of laser light.

Molecules are shown by their SMILES.

On to `C=Cc1c(C)c2cc3nc(c(CC(=O)N[C@@H](CC(=O)[O-])C(=O)[O-])c4[nH]c(cc5nc(cc1[nH]2)C(C)=C5CC)c(C)c4C(=O)[O-])[C@@H](CCC(=O)[O-])[C@@H]3C.[Na+].[Na+].[Na+].[Na+]`, for which the “Rate of Ear swelling, (%) (Average value ± Standard deviation)” value was 54.4 ± 7.2% in the series with BALB/c mice (0.001 mg/kg i.v.), 53.2 ± 20.6% with BALB/c mice (0.01 mg/kg i.v.), 33.3 ± 4.4% in the series on BALB/c mice (0.05 mg/kg i.v.) and 27.8 ± 8.5% in the series on BALB/c mice (0.1 mg/kg i.v.). Further, the “Suppression of the ear swelling” value in the series on BALB/c mice (i.v. dosages of 0.001 mg/kg or more, then laser light) was ≥ 45%. Besides, in the series with BALB/c mice (i.v., laser light at 664 nm), the “Ear swelling in contact hypersensitivity testing (result in words)” value is recorded as “remarkably be suppressed”. Also, the LD50 (commonly the dose at which mortality reaches 50%) with CD-1 mice (male) worked out at 164 mg/kg. In the series “Photo-toxicity test”, the “Photo-toxicity reactions (result in words)” value was “no reactions such as erythema, edema”. The “Percentage (%) of number of the mice with the surviving and remaining skin graft transplanted” value in series [1] (0th day (day of skin transplantation)) worked out at 100%; in series [1] (6th day), 100%; in series [1] (7th day), 80%; in series [1] (10th day) it was 80%; in series [1] (11th day), 80%; in series [1] (15th day) it was 0%. In series [1] (i.v., laser light at 664 nm), the “Rejection reactions in transplantation of skin (result in words)” value is reported as “preventively suppressed”. In addition, the “Percentage of the total mice tested with falling off of the skin graft” value in series [1] (within the period of 6th to 11th days, treated group) was found to be 20%.

These data come from patent US20020173523A1, “IMMUNOSUPPRESSION BY PHOTOCHEMOTHERAPY” (priority 1997, published 2002).
